# Target: TYK2 (Homo sapiens, UniProt P29597)
# Assay: TYK2 protein degradation in MOLT-4 cells by immunoblotting
# Type: cell-based
# Set-up: endogenous in cells; host or cells: MOLT-4
# Settings: MOLT-4 cells, 24 hours
# Summary of the method: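 Percent TYK2 degradation came from densitometry of chemiluminescent immunoblots of RIPA lysates. Before lysis, MOLT-4 cells had been treated for 24 h with each compound at 0.5 or 5 μM.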
# Sequence of TYK2 (P29597 whole entry): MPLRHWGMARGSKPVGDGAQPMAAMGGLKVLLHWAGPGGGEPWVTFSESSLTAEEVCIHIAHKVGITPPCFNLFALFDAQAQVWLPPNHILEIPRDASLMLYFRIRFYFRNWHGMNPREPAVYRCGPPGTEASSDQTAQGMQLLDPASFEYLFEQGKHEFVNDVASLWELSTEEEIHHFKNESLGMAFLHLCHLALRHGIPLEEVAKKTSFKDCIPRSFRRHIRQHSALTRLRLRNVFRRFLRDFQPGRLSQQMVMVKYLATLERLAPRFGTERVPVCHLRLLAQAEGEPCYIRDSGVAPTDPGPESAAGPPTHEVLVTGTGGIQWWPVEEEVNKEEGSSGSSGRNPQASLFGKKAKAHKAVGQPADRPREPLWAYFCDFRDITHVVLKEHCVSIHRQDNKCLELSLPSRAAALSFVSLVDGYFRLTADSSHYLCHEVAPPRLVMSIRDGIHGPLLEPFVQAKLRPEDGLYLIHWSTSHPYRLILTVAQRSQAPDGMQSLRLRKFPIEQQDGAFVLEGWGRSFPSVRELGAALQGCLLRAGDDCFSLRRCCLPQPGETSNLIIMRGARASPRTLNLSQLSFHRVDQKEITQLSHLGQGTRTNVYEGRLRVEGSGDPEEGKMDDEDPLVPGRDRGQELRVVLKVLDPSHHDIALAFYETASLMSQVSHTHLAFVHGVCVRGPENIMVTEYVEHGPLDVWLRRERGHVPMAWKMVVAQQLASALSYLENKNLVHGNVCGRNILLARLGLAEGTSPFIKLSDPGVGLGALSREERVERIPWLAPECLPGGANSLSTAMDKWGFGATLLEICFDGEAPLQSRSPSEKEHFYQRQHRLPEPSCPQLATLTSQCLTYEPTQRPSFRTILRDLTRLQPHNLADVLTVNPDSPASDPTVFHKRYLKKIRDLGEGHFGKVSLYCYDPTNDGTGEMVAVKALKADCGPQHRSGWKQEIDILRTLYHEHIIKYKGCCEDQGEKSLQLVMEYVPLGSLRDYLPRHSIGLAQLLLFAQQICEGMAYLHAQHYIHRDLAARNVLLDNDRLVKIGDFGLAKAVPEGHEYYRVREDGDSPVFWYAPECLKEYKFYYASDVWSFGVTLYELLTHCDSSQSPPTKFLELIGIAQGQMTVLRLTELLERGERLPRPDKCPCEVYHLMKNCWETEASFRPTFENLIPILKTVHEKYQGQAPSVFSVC
SMILES,"TYK2 Degradation (MOLT-4, 0.5 μM)","TYK2 Degradation (MOLT-4, 5 μM)"
"CNC(=O)c1nnc(NC(=O)C2CC2)cc1Nc1cccc(-c2ncn(CCNC(=O)CCCCCCCCCC(=O)N[C@H](C(=O)N3C[C@H](O)C[C@H]3C(=O)NCc3ccc(-c4scnc4C)cc3)C(C)(C)C)n2)c1OC [CPD-082, N^1-(2-(3-(3-((6-(Cyclopropanecarboxamido)-3-(methylcarbamoyl)pyridazin-4-yl)amino)-2-methoxyphenyl)-1H-1,2,4-triazol-1-yl)ethyl)-N^11-((S)-1-((2S,4R)-4-hydroxy-2-((4-(4-methylthiazol-5-yl)benzyl)carbamoyl)pyrrolidin-1-yl)-3,3-dimethyl-1-oxobutan-2-yl)undecanediamide]",C (C: ≤20% TYK2 degradation),C (C: ≤20% TYK2 degradation)
"CNC(=O)c1nnc(NC(=O)CNC(=O)CCCCCCC(=O)N[C@H](C(=O)N2C[C@H](O)C[C@H]2C(=O)N[C@@H](C)c2ccc(-c3scnc3C)cc2)C(C)(C)C)cc1Nc1cccc(-c2ncn(C)n2)c1OC [CPD-083, N^1-((S)-1-((2S,4R)-4-Hydroxy-2-(((S)-1-(4-(4-methylthiazol-5-yl)phenyl)ethyl)carbamoyl)pyrrolidin-1-yl)-3,3-dimethyl-1-oxobutan-2-yl)-N^8-(2-((5-((2-methoxy-3-(1-methyl-1H-1,2,4-triazol-3-yl)phenyl)amino)-6-(methylcarbamoyl)pyridazin-3-yl)amino)-2-oxoethyl)octanediamide]","B (B: <60% TYK2 degradation, and >20% TYK2 degradation)",A (A: ≥60% TYK2 degradation)
"CNC(=O)c1nnc(NC(=O)CNC(=O)CCCCCCCC(=O)N[C@H](C(=O)N2C[C@H](O)C[C@H]2C(=O)N[C@@H](C)c2ccc(-c3scnc3C)cc2)C(C)(C)C)cc1Nc1cccc(-c2ncn(C)n2)c1OC [CPD-084, N1-((S)-1-((2S,4R)-4-hydroxy-2-(((S)-1-(4-(4-methylthiazol-5-yl)phenyl)ethyl)carbamoyl)pyrrolidin-1-yl)-3,3-dimethyl-1-oxobutan-2-yl)-N9-(2-((5-((2-methoxy-3-(1-methyl-1H-1,2,4-triazol-3-yl)phenyl)amino)-6-(methylcarbamoyl)pyridazin-3-yl)amino)-2-oxoethyl)nonanediamide]",A (A: ≥60% TYK2 degradation),A (A: ≥60% TYK2 degradation)
"CNC(=O)c1nnc(NC(=O)CNC(=O)CNC(=O)C[C@H](NC(=O)[C@@H]2C[C@@H](O)CN2C(=O)[C@@H](NC(=O)C2(F)CC2)C(C)(C)C)c2ccc(-c3scnc3C)cc2)cc1Nc1cccc(-c2ncn(C)n2)c1OC [CPD-086, 6-(2-(2-((S)-3-((2S,4R)-1-((S)-2-(1-Fluorocyclopropane-1-carboxamido)-3,3-dimethylbutanoyl)-4-hydroxypyrrolidine-2-carboxamido)-3-(4-(4-methylthiazol-5-yl)phenyl)propanamido)acetamido)acetamido)-4-((2-methoxy-3-(1-methyl-1H-1,2,4-triazol-3-yl)phenyl)amino)-N-methylpyridazine-3-carboxamide]",C (C: ≤20% TYK2 degradation),
"CNC(=O)c1nnc(NC(=O)CNC(=O)CCNC(=O)C[C@H](NC(=O)[C@@H]2C[C@@H](O)CN2C(=O)[C@@H](NC(=O)C2(F)CC2)C(C)(C)C)c2ccc(-c3scnc3C)cc2)cc1Nc1cccc(-c2ncn(C)n2)c1OC [CPD-087, 6-(2-(3-((S)-3-((2S,4R)-1-((S)-2-(1-Fluorocyclopropane-1-carboxamido)-3,3-dimethylbutanoyl)-4-hydroxypyrrolidine-2-carboxamido)-3-(4-(4-methylthiazol-5-yl)phenyl)propanamido)propanamido)acetamido)-4-((2-methoxy-3-(1-methyl-1H-1,2,4-triazol-3-yl)phenyl)amino)-N-methylpyridazine-3-carboxamide]",C (C: ≤20% TYK2 degradation),
"CNC(=O)c1nnc(NC(=O)CNC(=O)CCCNC(=O)C[C@H](NC(=O)[C@@H]2C[C@@H](O)CN2C(=O)[C@@H](NC(=O)C2(F)CC2)C(C)(C)C)c2ccc(-c3scnc3C)cc2)cc1Nc1cccc(-c2ncn(C)n2)c1OC [CPD-088, 6-(2-(4-((S)-3-((2S,4R)-1-((S)-2-(1-Fluorocyclopropane-1-carboxamido)-3,3-dimethylbutanoyl)-4-hydroxypyrrolidine-2-carboxamido)-3-(4-(4-methylthiazol-5-yl)phenyl)propanamido)butanamido)acetamido)-4-((2-methoxy-3-(1-methyl-1H-1,2,4-triazol-3-yl)phenyl)amino)-N-methylpyridazine-3-carboxamide]",C (C: ≤20% TYK2 degradation),
"CNC(=O)c1nnc(NC(=O)CNC(=O)CCCCNC(=O)C[C@H](NC(=O)[C@@H]2C[C@@H](O)CN2C(=O)[C@@H](NC(=O)C2(F)CC2)C(C)(C)C)c2ccc(-c3scnc3C)cc2)cc1Nc1cccc(-c2ncn(C)n2)c1OC [CPD-089, 6-(2-(5-((S)-3-((2S,4R)-1-((S)-2-(1-Fluorocyclopropane-1-carboxamido)-3,3-dimethylbutanoyl)-4-hydroxypyrrolidine-2-carboxamido)-3-(4-(4-methylthiazol-5-yl)phenyl)propanamido)pentanamido)acetamido)-4-((2-methoxy-3-(1-methyl-1H-1,2,4-triazol-3-yl)phenyl)amino)-N-methylpyridazine-3-carboxamide]",C (C: ≤20% TYK2 degradation),C (C: ≤20% TYK2 degradation)
"CNC(=O)c1nnc(NC(=O)CNC(=O)CCCCCNC(=O)C[C@H](NC(=O)[C@@H]2C[C@@H](O)CN2C(=O)[C@@H](NC(=O)C2(F)CC2)C(C)(C)C)c2ccc(-c3scnc3C)cc2)cc1Nc1cccc(-c2ncn(C)n2)c1OC [CPD-090, 6-(2-(6-((S)-3-((2S,4R)-1-((S)-2-(1-Fluorocyclopropane-1-carboxamido)-3,3-dimethylbutanoyl)-4-hydroxypyrrolidine-2-carboxamido)-3-(4-(4-methylthiazol-5-yl)phenyl)propanamido)hexanamido)acetamido)-4-((2-methoxy-3-(1-methyl-1H-1,2,4-triazol-3-yl)phenyl)amino)-N-methylpyridazine-3-carboxamide]",C (C: ≤20% TYK2 degradation),C (C: ≤20% TYK2 degradation)
"CNC(=O)c1nnc(NC(=O)CNC(=O)CCCCCCNC(=O)C[C@H](NC(=O)[C@@H]2C[C@@H](O)CN2C(=O)[C@@H](NC(=O)C2(F)CC2)C(C)(C)C)c2ccc(-c3scnc3C)cc2)cc1Nc1cccc(-c2ncn(C)n2)c1OC [CPD-091, 6-(2-(7-((S)-3-((2S,4R)-1-((S)-2-(1-Fluorocyclopropane-1-carboxamido)-3,3-dimethylbutanoyl)-4-hydroxypyrrolidine-2-carboxamido)-3-(4-(4-methylthiazol-5-yl)phenyl)propanamido)heptanamido)acetamido)-4-((2-methoxy-3-(1-methyl-1H-1,2,4-triazol-3-yl)phenyl)amino)-N-methylpyridazine-3-carboxamide]",C (C: ≤20% TYK2 degradation),C (C: ≤20% TYK2 degradation)
"CNC(=O)c1nnc(NC(=O)CNC(=O)CCCCCCCNC(=O)C[C@H](NC(=O)[C@@H]2C[C@@H](O)CN2C(=O)[C@@H](NC(=O)C2(F)CC2)C(C)(C)C)c2ccc(-c3scnc3C)cc2)cc1Nc1cccc(-c2ncn(C)n2)c1OC [CPD-092, 6-(2-(8-((S)-3-((2S,4R)-1-((S)-2-(1-Fluorocyclopropane-1-carboxamido)-3,3-dimethylbutanoyl)-4-hydroxypyrrolidine-2-carboxamido)-3-(4-(4-methylthiazol-5-yl)phenyl)propanamido)octanamido)acetamido)-4-((2-methoxy-3-(1-methyl-1H-1,2,4-triazol-3-yl)phenyl)amino)-N-methylpyridazine-3-carboxamide]",C (C: ≤20% TYK2 degradation),C (C: ≤20% TYK2 degradation)
"CNC(=O)c1nnc(NC(=O)CNC(=O)CCCCCCCCNC(=O)C[C@H](NC(=O)[C@@H]2C[C@@H](O)CN2C(=O)[C@@H](NC(=O)C2(F)CC2)C(C)(C)C)c2ccc(-c3scnc3C)cc2)cc1Nc1cccc(-c2ncn(C)n2)c1OC [CPD-093, 6-(2-(9-((S)-3-((2S,4R)-1-((S)-2-(1-Fluorocyclopropane-1-carboxamido)-3,3-dimethylbutanoyl)-4-hydroxypyrrolidine-2-carboxamido)-3-(4-(4-methylthiazol-5-yl)phenyl)propanamido)nonanamido)acetamido)-4-((2-methoxy-3-(1-methyl-1H-1,2,4-triazol-3-yl)phenyl)amino)-N-methylpyridazine-3-carboxamide]",C (C: ≤20% TYK2 degradation),C (C: ≤20% TYK2 degradation)
"CNC(=O)c1nnc(NC(=O)CNC(=O)CCCCCCCCCNC(=O)C[C@H](NC(=O)[C@@H]2C[C@@H](O)CN2C(=O)[C@@H](NC(=O)C2(F)CC2)C(C)(C)C)c2ccc(-c3scnc3C)cc2)cc1Nc1cccc(-c2ncn(C)n2)c1OC [CPD-094, 6-(2-(10-((S)-3-((2S,4R)-1-((S)-2-(1-Fluorocyclopropane-1-carboxamido)-3,3-dimethylbutanoyl)-4-hydroxypyrrolidine-2-carboxamido)-3-(4-(4-methylthiazol-5-yl)phenyl)propanamido)decanamido)acetamido)-4-((2-methoxy-3-(1-methyl-1H-1,2,4-triazol-3-yl)phenyl)amino)-N-methylpyridazine-3-carboxamide]","B (B: <60% TYK2 degradation, and >20% TYK2 degradation)","B (B: <60% TYK2 degradation, and >20% TYK2 degradation)"

# Source: patent publication US20240059671A1, “TYROSINE KINASE 2 (TYK2) DEGRADATION COMPOUNDS AND METHODS OF USE” (CULLGEN (SHANGHAI), INC., priority 2020, published 2024)
